Drawing on US12297210B2, “Naphthyridine compounds and uses thereof” (Genentech, Inc., priority 2018, dated 2025), this text covers Ki for 17 compounds.

T1 sequence (Q92918 whole entry T165E/S171E): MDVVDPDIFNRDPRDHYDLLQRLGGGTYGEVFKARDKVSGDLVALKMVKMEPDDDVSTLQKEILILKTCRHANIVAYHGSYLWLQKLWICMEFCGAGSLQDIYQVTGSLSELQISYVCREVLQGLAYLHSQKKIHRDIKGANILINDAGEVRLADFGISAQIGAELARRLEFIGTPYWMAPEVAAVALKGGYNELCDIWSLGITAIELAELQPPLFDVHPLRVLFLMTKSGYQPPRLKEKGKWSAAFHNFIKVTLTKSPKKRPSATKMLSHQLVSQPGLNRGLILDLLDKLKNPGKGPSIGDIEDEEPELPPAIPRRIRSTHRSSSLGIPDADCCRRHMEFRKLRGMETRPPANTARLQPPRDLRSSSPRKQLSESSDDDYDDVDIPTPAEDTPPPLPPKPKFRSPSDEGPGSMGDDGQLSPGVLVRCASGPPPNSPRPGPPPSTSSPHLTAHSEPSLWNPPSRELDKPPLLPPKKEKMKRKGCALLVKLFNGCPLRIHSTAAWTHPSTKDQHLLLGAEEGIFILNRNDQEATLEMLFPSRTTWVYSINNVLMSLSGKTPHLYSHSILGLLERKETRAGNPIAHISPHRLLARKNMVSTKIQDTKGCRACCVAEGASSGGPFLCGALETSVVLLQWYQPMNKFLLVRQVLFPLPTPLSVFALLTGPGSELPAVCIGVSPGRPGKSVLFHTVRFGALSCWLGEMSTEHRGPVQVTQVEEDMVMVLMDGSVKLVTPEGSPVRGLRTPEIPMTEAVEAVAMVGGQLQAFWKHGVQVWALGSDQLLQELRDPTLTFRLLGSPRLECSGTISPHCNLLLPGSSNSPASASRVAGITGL

One assay addresses T1, HPK full length, T165E S171E (Homo sapiens, UniProt Q92918, S171E/T165E).
T1 construct: HPK full length, T165E S171E: 0.125 nM
The experiment in a line: HPK1-FL HTRF Enzymatic Assay ("HTRF"). The settings on record: ATP 1 mM, read-out: HPK1 Ki (nM) H = HTRF. Type of assay: biochemical. As for the experimental part:
Example B1: HPK1-FL HTRF Enzymatic Assay (“HTRF”)
HPK-FL enzyme phosphorylates Biotin-SLP-76 substrate in the presence of ATP at 1 mM and varying concentrations of test compound. Product is detected by FRET using Eu-anti-pSLP76 Ab and SA-XL665. Also see www.cisbio.com/HTRF for additional HTRF technology information.
• Echo555 compound dispenser • Agilent Bravo • Perkin Elmer Envision Final Assay Conditions: • HPK full length, T165E S171E: 0.125 nM • Biotin-SLP76: 100 nM • ATP: 1 mM (ATP Km=20 μM) • Eu-anti-pSLP76: 2 nM • SA-XL665: 8.3 nM • Preincubation time: 30 min • Kinase reaction time: 60 min • Temperature: ambient • Total volume: 12 μl • ATP^app Km: 17.7 μM Materials: • Assay plate: White ProxiPlate 384 F (PerkinElmer cat #6008289) • Kinase: HPK full length double mutant • Substrate: Biotin-SLP76 • ATP: 100 mM ATP • BSG: 2% BSG • DMSO: DMSO(Sigma cat #34869-100ML) • Reaction Buffer: H2O/50 mM HEPES, pH 7.5/10 mM MgCl2/2 mM TCEP/0.01% Brij-35/0.01% BSG • Detection mix: Eu-anti-pSLP76/SA-XL665 (Cisbio, #610SAXAC) Assay Procedure Ki Determination:
To a 384 well Proxiplate with 80 nL compound or DMSO spotted on was added 4 μl/well kinase mix. The mixture was preincubated for 30 minutes and then 4 μl/well substrate mix was added. The solution was incubated for 60 min and then 4 μl/well detection mix was added. The solution was incubated for another 60 min. The plates were then loaded onto a Perkin Elmer Envision and the TR-FRET signal was measured at 615 and 665 nm. A ratio of […] was used to calculate the % activity at each concentration of compound.
(Time-resolved FRET reads energy transfer from a long-lived donor to a nearby acceptor.)
As a reminder, the Ki is a dissociation constant, usually derived from enzyme kinetics or from competition with a known ligand. `Cc1c(N)cncc1-c1cc2cc(Nc3cc4n(n3)CC(=O)N(CC(F)F)CC4)ncc2cn1` [Compound 102, 2-((6-(5-amino-4-methylpyridin-3-yl)-2,7-naphthyridin-3-yl)amino)-6-(2,2-difluoroethyl)-5,6-dihydro-4H-pyrazolo[1,5-d][1,4]diazepin-7(8H)-one]: the Ki came out at 4 nM.
On the same count and under the same terms, the value for `Cc1c(N)cncc1-c1cc2cc(Nc3cc4n(n3)CC(=O)N(C(C)C)CC4)ncc2cn1` [Compound 104, 2-((6-(5-amino-4-methylpyridin-3-yl)-2,7-naphthyridin-3-yl)amino)-6-isopropyl-5,6-dihydro-4H-pyrazolo[1,5-d][1,4]diazepin-7(8H)-one] was 2.3 nM; that for `Cc1c(N)cncc1-c1cc2cc(Nc3cc4n(n3)Cc3nccn3CC4)ncc2c(C)n1` [Compound 105, N-(6-(5-amino-4-methylpyridin-3-yl)-8-methyl-2,7-naphthyridin-3-yl)-5,6-dihydro-11H-imidazo[1,2-a]pyrazolo[1,5-d][1,4]diazepin-8-amine] was 0.85 nM; that for `Cc1c(N)cncc1-c1cc2cc(Nc3cc4n(n3)CC(=O)N(C(C)C)CC4)ncc2c(C)n1` [Compound 106, 2-((6-(5-amino-4-methylpyridin-3-yl)-8-methyl-2,7-naphthyridin-3-yl)amino)-6-isopropyl-5,6-dihydro-4H-pyrazolo[1,5-d][1,4]diazepin-7(8H)-one] was 2.5 nM.
On the same count and under the same terms, the value for `COc1nc(-c2cnc3c(c2C)NCCO3)cc2cc(Nc3cc4n(n3)CC(=O)N(C)CC4)ncc12` [Compound 107, 2-((8-methoxy-6-(8-methyl-2,3-dihydro-1H-pyrido[2,3-b][1,4]oxazin-7-yl)-2,7-naphthyridin-3-yl)amino)-6-methyl-5,6-dihydro-4H-pyrazolo[1,5-d][1,4]diazepin-7(8H)-one] was 2.1 nM; that for `Cc1c(-c2cc3cc(Nc4cc5n(n4)CC(=O)N(C)CC5)ncc3c(C)n2)cnc2c1NCCO2` [Compound 108, 6-methyl-2-((8-methyl-6-(8-methyl-2,3-dihydro-1H-pyrido[2,3-b][1,4]oxazin-7-yl)-2,7-naphthyridin-3-yl)amino)-5,6-dihydro-4H-pyrazolo[1,5-d][1,4]diazepin-7(8H)-one] was 0.66 nM; that for `Cc1c(-c2cc3cc(Nc4cc5n(n4)CC(=O)N(C)CC54CC4)ncc3c(C)n2)cnc2c1NCCO2` [Compound 109, 6′-methyl-2′-((8-methyl-6-(8-methyl-2,3-dihydro-1H-pyrido[2,3-b][1,4]oxazin-7-yl)-2,7-naphthyridin-3-yl)amino)-5′,6′-dihydrospiro[cyclopropane-1,4′-pyrazolo[1,5-d][1,4]diazepin]-7′(8′H)-one] was 0.03 nM.
The same measure, in the same setting: next, `CNCc1cc(C)c(-c2cc3cc(Nc4cc5n(n4)CC(=O)N(C)CC5)ncc3cn2)c(F)c1` [Compound 110, 2-((6-(2-fluoro-6-methyl-4-((methylamino)methyl)phenyl)-2,7-naphthyridin-3-yl)amino)-6-methyl-5,6-dihydro-4H-pyrazolo[1,5-d][1,4]diazepin-7(8H)-one]: 13 nM.
Take `Cc1ccncc1-c1cc2cc(Nc3cc(C(=O)N(C)C)c(N)cn3)ncc2cn1` [Compound 201, 5-amino-N,N-dimethyl-2-((6-(4-methylpyridin-3-yl)-2,7-naphthyridin-3-yl)amino)isonicotinamide]: the inhibition constant Ki was 463 nM.
On the same count and under the same terms, the value for `Cc1ccncc1-c1cc2cc(Nc3ccc(S(C)(=O)=O)cn3)ncc2cn1` [Compound 202, 6-(4-methylpyridin-3-yl)-N-(5-(methylsulfonyl)pyridin-2-yl)-2,7-naphthyridin-3-amine] was 291 nM; that for `Cc1ccncc1-c1cc2cc(Nc3ccc(CO)cn3)ncc2cn1` [Compound 206, (6-((6-(4-methylpyridin-3-yl)-2,7-naphthyridin-3-yl)amino)pyridin-3-yl)methanol] was 577 nM.
Still for that read-out and setting: the value for `Cc1cc(Nc2cc3cc(C4CC4)ncc3cn2)ncn1` [Compound 209, 6-cyclopropyl-N-(6-methylpyrimidin-4-yl)-2,7-naphthyridin-3-amine] was more than 2000 nM.

The target in another assay is T2, HPK1 (Homo sapiens, UniProt Q92918).
T2 construct: purchased Signalchem M23-11G
T2 sequence (Q92918 1-346 limits assumed): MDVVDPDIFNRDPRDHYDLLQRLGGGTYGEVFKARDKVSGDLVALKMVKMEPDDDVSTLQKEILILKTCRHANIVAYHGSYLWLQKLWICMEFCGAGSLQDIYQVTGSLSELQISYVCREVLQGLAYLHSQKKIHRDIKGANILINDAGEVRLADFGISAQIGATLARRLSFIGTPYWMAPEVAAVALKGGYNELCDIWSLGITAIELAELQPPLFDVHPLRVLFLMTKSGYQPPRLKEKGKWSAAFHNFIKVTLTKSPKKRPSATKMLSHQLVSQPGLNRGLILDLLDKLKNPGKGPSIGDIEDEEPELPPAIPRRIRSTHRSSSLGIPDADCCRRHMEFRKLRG
As to the kind of experiment: HPK1 Lantha Binding Assay ("Lanth"). The following applies: 15 nM Tracer222, read-out: HPK1 Ki (nM) L = Lanth. The method, then: Example B2: HPK1 Lantha Binding Assay (“Lanth”)
The compounds to be tested were diluted by preparing 12.5 uL/well of 5 mM compound (100×) in columns 2 and 13 and 10 ul/well of DMSO in columns 3-12, 14-23, and wells A1-H1 and I24-P24 of the compound plate using a Bravo liquid handling platform. For the reference compound, the top concentration was 1 mM. To the plate was added 10 ul 2 mM staurosporine in wells J1-P1 and A24-H24. A 11 point 5-fold compound serial dilution was performed using the Bravo liquid handling platform. From the plate were transferred 2.5 ul of the solutions from column 2 and column 13 to the 10 ul of DMSO in columns 3 and 14 & so on. The compound plate was centrifuged at 2500 rpm for 1 min. From the compound plate was transferred 80 nl of the compounds into an assay plate using the Echo liquid handler system. One compound plate makes two assay plates. Each assay plate is sealed and stored in an N2 cabinet.
The following assay concentrations and times were used: 2 nM HPK1, 2 nM Eu-Anti-GST Ab, and 15 nM Tracer222, with 60 min incubation time.
For the binding assay, 4 ul 2×HPK1 and Eu-anti-GST antibody were added to each well of the assay plate using a Multidrop reagent dispenser. The solutions were incubated in a 23 C incubator for 1 h. To each well of the assay plate was added 4 ul 2×Tracer-222 using a Multidrop reagent dispenser. The solutions were again incubated in a 23 C incubator for 1 h. The results of the assay were read using an Envision plate reader with the following parameters: TR_FRET, 340ex/615 and 665em; 100 usec Delay; and 200 usec integration.
Compound Ki was analyzed using Morrison ki fit model in XL-fit • a. fit=(1−((((E+x)+(Ki*(1+(S/Kd))))−(((((E+x)+(Ki*(1+(S/Kd))))^2)−((4*E)*x))^0.5))/(2*E))) • res=(y-fit) • b. Parameters: • E=enzyme concentration • S=Tracer222 concentration, Kd=Tracer222 Kd • All measurements reported using the same units (uM)
`Cc1c(-c2cc3cc(Nc4cc5n(n4)CC(=O)N(C(C)C)CC5)ncc3cn2)cnc2c1NCCO2` [Compound 103, 6-isopropyl-2-((6-(8-methyl-2,3-dihydro-1H-pyrido[2,3-b][1,4]oxazin-7-yl)-2,7-naphthyridin-3-yl)amino)-5,6-dihydro-4H-pyrazolo[1,5-d][1,4]diazepin-7(8H)-one]: the Ki is 0.39 nM.
On the same count and under the same terms, next, `Cc1ccncc1-c1cc2cc(Nc3ccc(C(=O)N(C)C)cn3)ncc2cn1` [Compound 204, N,N-dimethyl-6-((6-(4-methylpyridin-3-yl)-2,7-naphthyridin-3-yl)amino)nicotinamide]: 24 nM.
Turning to `CNS(=O)(=O)c1ccc(Nc2cc3cc(-c4cnccc4C)ncc3cn2)nc1` [Compound 207, N-methyl-6-((6-(4-methylpyridin-3-yl)-2,7-naphthyridin-3-yl)amino)pyridine-3-sulfonamide], the Ki was found to be 11 nM.
The same measure, in the same setting: next, `Cc1ccncc1-c1cc2cc(Nc3ccc(CCO)cn3)ncc2cn1` [Compound 208, 2-(6-((6-(4-methylpyridin-3-yl)-2,7-naphthyridin-3-yl)amino)pyridin-3-yl)ethan-1-ol]: 28 nM.
On the same count and under the same terms, the value for `Cc1cc(Nc2cc3cc(-c4cnccc4C)ncc3cn2)nc(N)n1` [Compound 210, 6-methyl-N^4-(6-(4-methylpyridin-3-yl)-2,7-naphthyridin-3-yl)pyrimidine-2,4-diamine] was 3.9 nM.
